Measurements as given in patent US20260008817A1, “CYCLIC PEPTIDE OR SALT THEREOF, AND USES THEREOF” (FUJIFILM Corporation, priority 2023, published 2026).
Positions of bridges follow the written chain, without caps; N, C: chain ends. Non-standard residues stand in square brackets, D forms with d. No end group written: not given here. COCH2 = acetyl group that carries the bridge; hCys = N[C@@H](CCS)C(=O)O

Legend:
[1] = tested on: BaF3 cells stably expressing FGFR (human); experiment: BaF3 cell proliferation-promoting effect, human FGFR; assay type: cell-based; settings: viable cells at the addition concentration (0.001 to 10 nmol/L) with largest number; 2 nights
Experimental: (§1) The FGFR phosphorylation ability of the cyclic peptide complex was evaluated using the BaF3 cell proliferation-promoting effect in which FGFR was stably expressed.
(§2) BaF3 cells stably expressing FGFR were established by introducing a vector (human: Gene Copoeia, EX-Y2820-M67, bovine: sequence of Accession No. A4IFL5 was introduced into pCDNA3.1/Hygro(+) Mammalian Expression Vector (Thermo, V87020), porcine: sequence of Accession No. A0A8D1E4H1 was introduced into pCDNA3.1/Hygro(+) Mammalian Expression Vector (Thermo, V87020), and avian: sequence of Accession No. P21804 was introduced into pCDNA3.1/Hygro(+) Mammalian Expression Vector (Thermo, V87020)) into which FGFR gene had been incorporated, into BaF3 cells using Nucleofector and performing drug selection of cells into which the FGFR gene had been introduced using hygromycin.
(§3) The evaluation of the proliferation-promoting effect of BaF3 cells in which FGFR is stably expressed was performed by the following method. […] The number of viable cells was calculated from the imaging data, and the cell proliferation-promoting effect was evaluated according to the following evaluation criteria. […]

[2] = tested on: BaF3 cells stably expressing FGFR (avian); experiment: BaF3 cell proliferation-promoting effect, avian FGFR; assay type: cell-based; settings: viable cells at the addition concentration (0.001 to 10 nmol/L) with largest number; 2 nights
Experimental: as §1, §2, §3

[3] = tested on: BaF3 cells stably expressing FGFR (porcine); experiment: BaF3 cell proliferation-promoting effect, porcine FGFR; assay type: cell-based; settings: viable cells at the addition concentration (0.001 to 10 nmol/L) with largest number; 2 nights
Experimental: as §1, §2, §3

[4] = tested on: BaF3 cells stably expressing FGFR (bovine); experiment: BaF3 cell proliferation-promoting effect, bovine FGFR; assay type: cell-based; settings: viable cells at the addition concentration (0.001 to 10 nmol/L) with largest number; 2 nights
Experimental: as §1, §2, §3

[5] = Alkali treatment stability of cyclic peptide (LC); assay type: physicochemical; settings: 0.5 mol/L sodium hydroxide aqueous solution added, room temperature, 3 hours
Experimental: In addition, the stability of the cyclic peptide (SEQ ID NO: 335) containing a cysteine residue in the cyclized portion and the cyclic peptide (SEQ ID NO: 327) containing a homocysteine residue in the cyclized portion was compared under the following alkali treatment, which is a more severe condition.
The alkali treatment was performed by the following method. 25 μL of a 0.2 mg/mL cyclic peptide aqueous solution was prepared, 58.8 μL of a 0.5 mol/L sodium hydroxide aqueous solution was added to the aqueous solution, and the mixture was incubated at room temperature for 3 hours to obtain an aqueous solution of the cyclic peptide alkali-treated. The total area of all the peaks in LC/MS of the cyclic peptide before the alkali treatment was set to 100%, and the proportion of the total area of all the peaks in LC/MS of the aqueous solution of the cyclic peptide alkali-treated was determined to calculate the residual rate of the cyclic peptide.
The LC conditions used for the evaluation of molecular stability are the same as those in the measurement of the above-described cyclic peptide treated with a reducing agent.

[6] = tested on: hMSC-Human Mesenchymal Stem Cells; experiment: Effect of maintaining MSC undifferentiated potency (gene expression); assay type: cell-based
Experimental: The effect of maintaining mesenchymal stem cell (MSC) undifferentiated potency of the cyclic peptide complex was evaluated.
MSC was prepared in the same manner as in Example 7.
The evaluation of the effect of maintaining the MSC undifferentiated potency was performed by the following method. First, a culture medium (hereinafter, referred to as a custom culture medium) in which bFGF was removed from PRIME-XV MSC Expansion XSFM (FUJIFILM Irvine Scientific, Inc., 91149) was prepared. Next, Prime-XV Human Fibronectin (FUJIFILM Irvine Scientific, Inc., 31002) was dissolved in PBS (Fujifilm Wako Pure Chemical Corporation, 164-23551), 2 μg/cm^2 of the solution was added to a 12-well plate used for proliferation, and the 12-well plate was allowed to stand at room temperature for 3 hours to coat the 12-well plate with fibronectin. Thereafter, the MSCs subjected to the subculture were peeled using Tryple Express (Thermo, 12604-013), washed once with a custom culture medium, suspended in a custom culture medium in which a cyclic peptide complex or bFGF (R&D Systems, 3718-GMP) was diluted to final concentrations of 10 nmol/L and 1 nmol/L, and seeded on a 12-well plate coated with fibronectin. In this case, conditions in which the cyclic peptide complex and bFGF were not added as a negative control were prepared. After culturing at 37° C. (5% CO2) for 2 nights, the culture medium was replaced by removing the supernatant of the culture medium and adding the same amount of a culture medium prepared to have the same composition as the removed culture medium. After further culturing at 37° C. (5% CO2) for 2 nights, RNA was extracted using an RNeasy Plus Mini Kit (Qiagen, 74136) according to the manufacturer's protocol. […] The expression level of each gene was normalized by setting the expression level of the well to which 1 nmol/L bFGF was added to 1.

[7] = 1 nmol/L bFGF versus negative control

| Substance | Evaluation result of cell proliferative properties Human [1] | Evaluation result of cell proliferative properties Avian [2] | Evaluation result of cell proliferative properties Porcine [3] | Evaluation result of cell proliferative properties Bovine [4] | residual rate of the cyclic peptide [5] [%] | also measured |
| --- | --- | --- | --- | --- | --- | --- |
| 343 (ACVWTFDRHAQEISQALHKVGSGSGSSGSGSSGSSACVWTFDRHAQEISQALHKV; also: cyclic peptide, ring type and places not given here) [compound 343] | C (The number of viable cells is 100 cells/well or more and less than 200 cells/well.) | B (The number of viable cells is 200 cells/well or more and less than 400 cells/well.) | B (The number of viable cells is 200 cells/well or more and less than 400 cells/well.) | A (The number of viable cells is 400 cells/well or more.) |  |  |
| 344 (ACVWTFDRHAQEISQALHKVACVWTFDRHAQEISQALHKV; also: cyclic peptide, ring type and places not given here) [compound 344] | B (The number of viable cells is 200 cells/well or more and less than 400 cells/well.) | B (The number of viable cells is 200 cells/well or more and less than 400 cells/well.) | B (The number of viable cells is 200 cells/well or more and less than 400 cells/well.) | A (The number of viable cells is 400 cells/well or more.) |  |  |
| A-(C)-VWTFDRHAQEISQALH-(K(acetyl))-VKKK (ACVWTFDRHAQEISQALHK(COCH2)VKKK; thioether 2-19 (inferred)) [SEQ ID NO: 335] |  |  |  |  | 15 |  |
| A-(Hcy)-VWTFDRHAQEISQALH-(K(acetyl))-VKKK (A[hCys]VWTFDRHAQEISQALHK(COCH2)VKKK; thioether 2-19) [SEQ ID NO: 327] |  |  |  |  | 28 |  |
| bFGF: basic fibroblast growth factor (R&D Systems, 3718-GMP), growth factor used as comparison |  |  |  |  |  | expression level of Nanog [6, 7]: did not change substantially; expression level of Oct4 [6, 7]: did not change substantially; expression level of Sox2 ([6]; cyclic peptide complex 10 nmol/L, bFGF 1 nmol/L, normalized to 1 nmol/L bFGF = 1, FIG. 4): changed |
